The source made the active and inactive calls. The calls are words filed in the database; no cut-off is given here. *1 amine or outer side, *2 acyl side, *3 side chain or, on linkers, in order; H or OH if unused. Where a SMILES comes first, the peptide text is derived from it. [ ]: non-standard residue; d: D form. The star is where a group is joined. ξ: configuration not given here. X3 = CC(=O)OC[C@@H]1O[C@H](N*)[C@H](OC(C)=O)[C@H](OC(C)=O)[C@H]1OC(C)=O; X2 = OC[C@@H]1O[C@H](N*)[C@@H](O)[C@H](O)[C@H]1O; X1 = OC[C@@H]1O[C@H](N*)[C@H](O)[C@H](O)[C@H]1O; Ile(3ξ) = CCC(C)[C@H](N)C(=O)O; Thr(3ξ) = CC(O)[C@H](N)C(=O)O; Suc = O=C(CCC(=O)[*:2])[*:1]
Legend:
[1] = test system: TC1; experiment: Antitumor activity against HPV16 associated TC1 cells xenografted C57BL/6(H2b) mouse
[2] = test system: TC1; experiment: Antitumor activity against HPV16 associated TC1 cells xenografted C57BL/6(H2b) mouse at 40 ug; assay type: functional

| Compound | Activity [1] | Activity [2] |
| --- | --- | --- |
| CC[C@H](C)[C@H](NC(=O)[C@@H](NC(=O)[C@@H](N)CO)[C@@H](C)CC)C(=O)N[C@@H](CC(N)=O)C(=O)N[C@@H](Cc1ccccc1)C(=O)N[C@@H](CCC(=O)O)C(=O)N[C@@H](CCCCN)C(=O)N[C@@H](CC(C)C)C(=O)O | inactive |  |
| CCC(C)[C@H](NC(=O)[C@H](CC(N)=O)NC(=O)[C@H](Cc1ccc(O)cc1)NC(=O)[C@H](Cc1cnc[nH]1)NC(=O)[C@H](C)NC(=O)[C@H](CCCNC(=N)N)NC(=O)[C@H](CC(=O)O)NC(=O)[C@@H]1CCCN1C(=O)[C@H](CCC(=O)O)NC(=O)[C@H](C)NC(=O)[C@H](CCC(N)=O)NC(=O)CCC(=O)N[C@H]1O[C@@H](CO)[C@H](O)[C@@H](O)[C@H]1O)C(=O)N[C@H](C(=O)N[C@H](C(=O)N[C@@H](Cc1ccccc1)C(=O)N[C@@H](CS)C(=O)N[C@@H](CS)C(=O)N[C@@H](CCCCN)C(=O)N[C@@H](CS)C(=O)N[C@@H](CC(=O)O)C(N)=O)C(C)O)C(C)C (some centres undefined) ({X1-Suc}-QAEPDRAHYN[Ile(3ξ)]V[Thr(3ξ)]FCCKCD-NH2) |  | inactive |
| CCC(C)[C@H](NC(=O)[C@H](CC(N)=O)NC(=O)[C@H](Cc1ccc(O)cc1)NC(=O)[C@H](Cc1cnc[nH]1)NC(=O)[C@H](C)NC(=O)[C@H](CCCNC(=N)N)NC(=O)[C@H](CC(=O)O)NC(=O)[C@@H]1CCCN1C(=O)[C@H](CCC(=O)O)NC(=O)[C@H](C)NC(=O)[C@H](CCC(N)=O)NC(=O)CCC(=O)N[C@H]1O[C@@H](CO)[C@H](O)[C@@H](O)[C@@H]1O)C(=O)N[C@H](C(=O)N[C@H](C(=O)N[C@@H](Cc1ccccc1)C(=O)N[C@@H](CS)C(=O)N[C@@H](CS)C(=O)N[C@@H](CCCCN)C(=O)N[C@@H](CS)C(=O)N[C@@H](CC(=O)O)C(N)=O)C(C)O)C(C)C (some centres undefined) ({X2-Suc}-QAEPDRAHYN[Ile(3ξ)]V[Thr(3ξ)]FCCKCD-NH2) |  | inactive |
| CCC(C)[C@H](NC(=O)[C@H](CC(N)=O)NC(=O)[C@H](Cc1ccc(O)cc1)NC(=O)[C@H](Cc1cnc[nH]1)NC(=O)[C@H](C)NC(=O)[C@H](CCCNC(=N)N)NC(=O)[C@H](CC(=O)O)NC(=O)[C@@H]1CCCN1C(=O)[C@H](CCC(=O)O)NC(=O)[C@H](C)NC(=O)[C@H](CCC(N)=O)NC(=O)CCC(=O)N[C@H]1O[C@@H](COC(C)=O)[C@H](OC(C)=O)[C@@H](OC(C)=O)[C@H]1OC(C)=O)C(=O)N[C@H](C(=O)N[C@H](C(=O)N[C@@H](Cc1ccccc1)C(=O)N[C@@H](CS)C(=O)N[C@@H](CS)C(=O)N[C@@H](CCCCN)C(=O)N[C@@H](CS)C(=O)N[C@@H](CC(=O)O)C(N)=O)C(C)O)C(C)C (some centres undefined) ({X3-Suc}-QAEPDRAHYN[Ile(3ξ)]V[Thr(3ξ)]FCCKCD-NH2) |  | inactive |

From ChEMBL document CHEMBL1148777, “Toward the development of prophylactic and therapeutic human papillomavirus type-16 lipopeptide vaccines” (J Med Chem, 2007)
